Results from US7439356B2, “Substituted indan derivatives” (AstraZeneca AB, priority 1997, dated 2008).

## CN1CCN(c2cccc3c2CC(C(=O)Nc2ccc(N4CCOCC4)cc2)C3)CC1 (stereo not shown) [Example 4, 4-(4-Methylpiperazin-1-yl)-N-(4-morpholinophenyl)indan-2-carboxamide]
  melting point: 248 to 249 °C
